Tests used:
[1] = cited from earlier work
[2] = tested on: normal human 3D model of epidermal tissue
Excerpt: The remaining components shown in Example 1 above were reduced accordingly, such as by 30.5%. […] Standard Ointment includes 95% white petrolatum and 5% white wax. Permeation was measuring using Franz type diffusion cells and a normal human 3D model of epidermal tissue.

[3] = 3-month/40° C. stability of topical anesthetics; type: physicochemical; conditions: for content as percent (in parentheses), 30 DAYS / content, 30 DAYS / content as percent (in parentheses), 60 DAYS / content, 60 DAYS / content as percent (in parentheses), 90 DAYS / content, 90 DAYS: 40° C.; for content as percent (in parentheses), INITIAL / content, INITIAL: 3-month/40° C. stability; for EXPIRY DATING: tentative expiry dating from 3-month/40° C. stability data
Experimental: The tables below show expiration dates for various topical anesthetics, including 3-month/40° C. stability data. Full-term controlled room temperature stability data are used to support the tentative expiry dating.

Structure (SMILES) | time to peak effect (ranking) ([1]; applied to mucous membranes) | Percutaneous Absorption Testing, 12 Hours [2] [%] | Percutaneous Absorption Testing, 24 Hours [2] [%] | Percutaneous Absorption Testing, 36 Hours [2] [%] | Percutaneous Absorption Testing, 48 Hours [2] [%] | content as percent (in parentheses), 30 DAYS [3] | content, 30 DAYS [3] [% W/W] | content as percent (in parentheses), 60 DAYS [3] | content, 60 DAYS [3] [% W/W] | content as percent (in parentheses), 90 DAYS [3] | content, 90 DAYS [3] [% W/W] | content as percent (in parentheses), INITIAL [3] | content, INITIAL [3] [% W/W] | EXPIRY DATING [3] [YEARS] | duration of action after topical application [1]
CCOC(=O)c1ccc(N)cc1 [Benzocaine] | fastest | 100 | 100 | 100 | 100 | (102.5%) | 20.5 | (102.0%) | 20.4 | (98.0%) | 19.6 | (99.0%) | 19.8 | ~1.2 | –
CCCCOc1cc(C(=O)NCCN(CC)CC)c2ccccc2n1 [Dibucaine] | – | – | – | – | – | – | – | – | – | – | – | – | – | – | 3 to 4 h
CCN(CC)CC(=O)Nc1c(C)cccc1C [Lidocaine] | – | – | – | – | – | (103.0%) | 10.3 | (101.0%) | 10.1 | (104.0%) | 10.4 | (100.0%) | 10.0 | ~2.0 | –
CCCCNc1ccc(C(=O)OCCN(C)C)cc1 [Tetracaine] | – | 2 | 2 | 3 | 3 | (102.5%) | 4.1 | (100.0%) | 4.0 | (100.0%) | 4.0 | (95.0%) | 3.8 | ~2.0 | up to 2 hours

Source: patent publication US20170319534A1, “EUTECTIC ANESTHETIC TOPICAL COMPOSITIONS” (Humco Holding Group, Inc., priority 2016, published 2017)
